Data on ten compounds can be found in patent publication US20250073248A1, “BIORESORBABLE CATIONIC STEROIDAL ANTIMICROBIAL COMPOUNDS WITH GLYCERIDE LINKAGES” (BRIGHAM YOUNG UNIVERSITY, priority 2023, published 2025).

Structures are written as SMILES. In brackets after ≈: the same amount, converted by molar mass.

Experiment [1] deals with MRSA ATCC BAA-42. Kind of experiment: Membrane depolarization, DiSC2(5) fluorescence. Format: cell-based, Staphylococcus aureus. The conditions noted are these: 8 μg/mL, FIG. 5. How it is done:
Reference is made to FIGS. 4 and 5. […] CSA-131 or CSA-4110 was added at 140 second to achieve 8 μg/mL after addition.
Antimicrobial peptides (AMPs) and CSA compounds are known to permeabilize bacterial membranes. For bacterial survival, the cytoplasmic membrane must be polarized. Depolarization of this membrane prevents ATP synthesis and leads to cell death. The dye 3,3′-diethylthiadicarbocyanine iodide (DiSC2(5)) can be used to measure cell membrane polarization. Fluorescence of this dye is decreased when it inserts into polarized membranes, and membrane depolarization results in substantial increases in fluorescence (see FIG. 5).
MRSA was used to explore the impact of CSA-4110 on membrane depolarization and compared results to those with ceragenin CSA-131. […] Fluorescence was monitored over time after addition of CSA-4110 or CSA-131. which incorporated into cellular membranes.

In experiment [2] the test system is strains of Staphylococcus aureus, Pseudomonas aeruginosa, and Candida albicans. The conditions noted are these: previous work; strains of S. aureus, P. aeruginosa, C. albicans; cited from earlier work.
For experiment [3], the system named is methicillin-resistant Staphylococcus aureus (MRSA). Briefly: MIC and MBC, broth microdilution, MRSA (Table 1). The experiment is classed as cell-based. The conditions noted are these: for MBC / MIC: Staphylococcus aureus; for MIC: first value of cell. The text has this: (§1) To investigate the antimicrobial impact of structural variance in the novel bioresorbable CSA compounds disclosed herein,Pseudomonas aeruginosa 01 (PA01), methicillin-resistant Staphylococcus aureus (MRSA), and Candida albicans (CA) were selected, representing Gram-negative bacterial, Gram-positive bacterial, and fungal pathogens of high or critical priority on the world health organization's priority lists for bacteria and fungi. Earlier applications of CSA compounds have focused on preventing medical device infections, and all three strains are commonly found in colonized implants, making efficacy against these pathogens an important indicator of future applicability.
(§2) All compounds were screened against these pathogens to determine their minimum inhibitory concentration (MIC), minimum bactericidal concentration (MBC), and minimum fungicidal concentration (MFC) using a broth microdilution method. […] Of these three, only CSA-4110 was similarly active against PA01and CA, inhibiting growth at 8 μg/mL.
A general note: In broth dilution the organism is exposed to a series of concentrations in liquid medium.

Experiment [4] relates to Pseudomonas aeruginosa 01 (PA01). Kind of experiment: MIC and MBC, broth microdilution, PA01 (Table 1). Format: cell-based. The conditions noted are these: for MBC / MIC: Pseudomonas aeruginosa; for MBC / MBC or MFC: value in parentheses; for MIC: first value of cell.
Excerpt: as §1, §2

In experiment [5] the test system is Candida albicans (CA). Briefly: MIC and MFC, broth microdilution, CA (Table 1). Format: cell-based. The conditions noted are these: for MBC / MIC: Candida albicans; for MBC / MBC or MFC: MFC, value in parentheses; for MIC: first value of cell.
Excerpt: as §1, §2

Experiment [6] concerns Candida albicans 90028. Briefly: Example 1 MIC/MFC (FIG. 1, FIG. 2), C. albicans. The experiment is classed as cell-based. How it is done: (§3) The antimicrobial activities of CSA-4108, CSA-4110, CSA-4112, and CSA-4114 were determined relative to methicillin-resistant Staphylococcus aureus (MRSA), Pseudomonas aeruginosa (Pa), and Candida albicans 90028. The minimum inhibitory concentration (MIC) for CSA-4108, CSA-4110, CSA-4112, and CSA-4114 relative to the foregoing microbes is graphically reported in FIG. 1. The minimum bactericidal concentration (MBC) and minimum fungicidal concentration […] for CSA-4108, CSA-4110, CSA-4112, and CSA-4114 relative to the foregoing microbes are graphically reported in FIG. 2.

In experiment [7] the test system is PA01, MRSA and CA. Briefly: MIC, MBC and MFC screen, all three pathogens (summary statements). Format: cell-based. The conditions noted are these: compared with CSA-4110.
Excerpt: as §1, §2

The subject of experiment [8] is methicillin-resistant Staphylococcus aureus (MRSA). Briefly: Example 1 MIC/MBC (FIG. 1, FIG. 2), MRSA. The experiment is classed as cell-based. As to the method:
as §3

[9] abbreviates: MBC, value in parentheses, kills at least 99.9%.

Consider `CCCCCCCCCCCCNCCC[C@@H](C)[C@H]1CC[C@H]2[C@@H]3[C@H](OCCCN)C[C@@H]4C[C@H](OCCCN)CC[C@]4(C)[C@H]3C[C@H](OCCCN)[C@]12C.Cl.Cl.Cl.Cl` [CSA-131], for which the “speed of depolarization of MRSA cells, comparison” value in experiment [1] is “more rapidly than CSA-4110”. Besides, the “fluorescence of DiSC2(5) after addition (membrane depolarization)” value in experiment [1] (added at 140 seconds) is given as “rapid increase of fluorescence”. Further, in experiment [2], the MICs is 0.5 to 2 µg/mL.
The term MIC denotes the smallest concentration in the dilution series that meets the test's criterion for growth inhibition. A high value points to a less susceptible organism. As for `CCCCCCCC(=O)OCC(O)COC(=O)CC[C@@H](C)[C@H]1CC[C@H]2[C@@H]3[C@H](OC(=O)CCN)C[C@@H]4C[C@H](OC(=O)CCN)CC[C@]4(C)[C@H]3C[C@H](OC(=O)CCN)[C@]12C` (stereo partly shown) [CSA-4108], the MBC in experiment [3] (setting [9]) is 32 µg/mL (≈ 38.9 µM); in experiment [4] it was > 100 µg/mL; in experiment [5], 16 µg/mL (≈ 19.5 µM). The MIC was 16 µg/mL (≈ 19.5 µM) in experiment [3], 64 µg/mL (≈ 77.8 µM) in experiment [4] and 16 µg/mL (≈ 19.5 µM) in experiment [5]. In experiment [5], the “MBC or MFC” value is on record as 16 (16) μg/mL. For the same compound, the “MIC (FIG. 1), ranking in words” value in experiment [6] was “same MIC”.
Take `CCCCCCCCCC(=O)OC[C@@H](O)COC(=O)CC[C@@H](C)[C@H]1CC[C@H]2[C@@H]3[C@H](OC(=O)CCN)C[C@@H]4C[C@H](OC(=O)CCN)CC[C@]4(C)[C@H]3C[C@H](OC(=O)CCN)[C@]12C` [CSA-4110R]: the MBC in experiment [3] (setting [9]) was 4 µg/mL (≈ 4.71 µM); in experiment [4], 8 µg/mL (≈ 9.41 µM); in experiment [5], 8 µg/mL (≈ 9.41 µM). Further, the MIC in experiment [3] came to 4 µg/mL (≈ 4.71 µM); in experiment [4], 4 µg/mL (≈ 4.71 µM); in experiment [5], 8 µg/mL (≈ 9.41 µM). Besides, in experiment [7], the “antimicrobial activity in MIC and MBC/MFC assays, in words” value is recorded as “performed comparably to CSA-4110”.
`CCCCCCCCCC(=O)OC[C@H](O)COC(=O)CC[C@@H](C)[C@H]1CC[C@H]2[C@@H]3[C@H](OC(=O)CCN)C[C@@H]4C[C@H](OC(=O)CCN)CC[C@]4(C)[C@H]3C[C@H](OC(=O)CCN)[C@]12C` [CSA-4110S]: the MBC in experiment [3] (setting [9]) came to 4 µg/mL (≈ 4.71 µM); in experiment [4], 16 µg/mL (≈ 18.8 µM); in experiment [5] it was 8 µg/mL (≈ 9.41 µM). The values for the MIC in experiment [3], in experiment [4] and in experiment [5] were 4 µg/mL (≈ 4.71 µM), 8 µg/mL (≈ 9.41 µM) and 8 µg/mL (≈ 9.41 µM), respectively. Besides, in experiment [7], the “antimicrobial activity in MIC and MBC/MFC assays, in words” value was “performed comparably to CSA-4110”.
Take `CCCCCCCCCCCC(=O)OCC(O)COC(=O)CC[C@@H](C)[C@H]1CC[C@H]2[C@@H]3[C@H](OC(=O)CCN)C[C@@H]4C[C@H](OC(=O)CCN)CC[C@]4(C)[C@H]3C[C@H](OC(=O)CCN)[C@]12C` (stereo partly shown) [CSA-4112]: the MBC was determined as 32 µg/mL (≈ 36.4 µM) in experiment [3] (setting [9]), 64 µg/mL (≈ 72.9 µM) in experiment [4] and 16 µg/mL (≈ 18.2 µM) in experiment [5]. Besides, the MIC in experiment [3] came to 16 µg/mL (≈ 18.2 µM); in experiment [4] it was 64 µg/mL (≈ 72.9 µM); in experiment [5], 16 µg/mL (≈ 18.2 µM). In addition, in experiment [5], the “MBC or MFC” value is reported as 16 (16) μg/mL. In addition, the “MIC (FIG. 1), ranking in words” value in experiment [6] was “same MIC”.
Turning to `CCCCCCCCCCCCCC(=O)OCC(O)COC(=O)CC[C@@H](C)[C@H]1CC[C@H]2[C@@H]3[C@H](OC(=O)CCN)C[C@@H]4C[C@H](OC(=O)CCN)CC[C@]4(C)[C@H]3C[C@H](OC(=O)CCN)[C@]12C` (stereo partly shown) [CSA-4114], the MBC was > 100 µg/mL in experiment [3] (setting [9]), > 100 µg/mL in experiment [4] and 64 µg/mL (≈ 70.6 µM) in experiment [5]. The MIC in experiment [3] was 64 µg/mL (≈ 70.6 µM); in experiment [4], > 100 µg/mL; in experiment [5], 64 µg/mL (≈ 70.6 µM). The “MIC (FIG. 1), ranking in words” value in experiment [8] and in experiment [6] was “highest MIC” each time. Also, the “MFC (FIG. 2), ranking in words” value in experiment [6] is on record as “highest MFC”.
Regarding `CCCC(=O)OCC(COC(=O)CC[C@@H](C)[C@H]1CC[C@H]2[C@@H]3[C@H](OC(=O)CCN)C[C@@H]4C[C@H](OC(=O)CCN)CC[C@]4(C)[C@H]3C[C@H](OC(=O)CCN)[C@]12C)OC(=O)CCC` (stereo partly shown) [CSA-4204], the MBC in experiment [3] (setting [9]) is 8 µg/mL (≈ 9.57 µM); in experiment [4], 100 µg/mL (≈ 120 µM); in experiment [5], 32 µg/mL (≈ 38.3 µM). For the same compound, the MIC was ≤ 8 µg/mL in experiment [3], 64 µg/mL (≈ 76.5 µM) in experiment [4] and 16 µg/mL (≈ 19.1 µM) in experiment [5]. Also, in experiment [4], the “MBC or MFC” value was > 100 µg/mL.
On to `CCCCCC(=O)OCC(COC(=O)CC[C@@H](C)[C@H]1CC[C@H]2[C@@H]3[C@H](OC(=O)CCN)C[C@@H]4C[C@H](OC(=O)CCN)CC[C@]4(C)[C@H]3C[C@H](OC(=O)CCN)[C@]12C)OC(=O)CCCCC` (stereo partly shown) [CSA-4206], for which the “MBC or MFC” value in experiment [3] (setting [9]) is recorded as 8 (8) μg/mL; in experiment [4], 32 (32) μg/mL; in experiment [5], 8 (8) μg/mL. Also, the figures for the MBC in experiment [3] (setting [9]), in experiment [4] and in experiment [5] were 8 µg/mL (≈ 8.97 µM), 32 µg/mL (≈ 35.9 µM) and 8 µg/mL (≈ 8.97 µM), respectively. Further, the MIC in experiment [3] was ≤ 8 µg/mL; in experiment [4] it was 32 µg/mL (≈ 35.9 µM); in experiment [5], 8 µg/mL (≈ 8.97 µM).
For the compound `CCCCCCCC(=O)OCC(COC(=O)CC[C@@H](C)[C@H]1CC[C@H]2[C@@H]3[C@H](OC(=O)CCN)C[C@@H]4C[C@H](OC(=O)CCN)CC[C@]4(C)[C@H]3C[C@H](OC(=O)CCN)[C@]12C)OC(=O)CCCCCCC` (stereo partly shown) [CSA-4208], the values for the MBC in experiment [3] (setting [9]), in experiment [4] and in experiment [5] were 64 µg/mL (≈ 67.5 µM), > 100 µg/mL and 64 µg/mL (≈ 67.5 µM), respectively. Further, the MIC in experiment [3] came out at 32 µg/mL (≈ 33.7 µM); in experiment [4], 64 µg/mL (≈ 67.5 µM); in experiment [5], 64 µg/mL (≈ 67.5 µM).
Regarding `CCCCCCCCCC(=O)OCC(COC(=O)CC[C@@H](C)[C@H]1CC[C@H]2[C@@H]3[C@H](OC(=O)CCN)C[C@@H]4C[C@H](OC(=O)CCN)CC[C@]4(C)[C@H]3C[C@H](OC(=O)CCN)[C@]12C)OC(=O)CCCCCCCCC` (stereo partly shown) [CSA-4210], the MBC in experiment [3] (setting [9]), in experiment [4] and in experiment [5] was > 100 µg/mL in each case. The MIC in experiment [3], in experiment [4] and in experiment [5] was > 100 µg/mL throughout.
